Assay results taken from article doi:10.1101/2024.08.19.608619, “Discovery of potent SARS-CoV-2 nsp3 macrodomain inhibitors uncovers lack of translation to cellular antiviral response” (bioRxiv, 2024).
Like-named read-outs stand apart in the source and are kept apart here.

How the values were obtained:
SARS-CoV-2 nsp3-mac1 [1] = target: T1, SARS-CoV-2 nsp3-mac1 (Severe acute respiratory syndrome coronavirus 2, UniProt P0DTD1); test: biochemical; type: biochemical; details: SARS-CoV-2 nsp3 macrodomain TR-FRET single point, concentration 50.0 uM
SARS-CoV-2 nsp3-mac1 [2] = target: T1, SARS-CoV-2 nsp3-mac1; test: biochemical; parameters: SARS-CoV-2 nsp3 macrodomain TR-FRET single point, per cent inhibition, n=2

Compound	perc_inhibition_mean (SARS-CoV-2 nsp3-mac1 [1])	also measured
O=C(Cc1ccon1)Nc1ncnc2[nH]cnc12 [ASAP-0000102]	-1.615%	inhibition at 50 µM (SARS-CoV-2 nsp3-mac1 [2]; read-out: perc_inhibition_mean, batch_name=ASAP-0000102-001): -1.61%
Cc1ncc(NCc2ncn(C)c2Cl)cc1C(N)=O [ASAP-0000103]	2.409%	inhibition at 50 µM (SARS-CoV-2 nsp3-mac1 [2]; read-out: perc_inhibition_mean, batch_name=ASAP-0000103-001): 2.41%
Cc1ncc(NCc2cc3n(n2)CCOC3)cc1C(N)=O [ASAP-0000104]	0.46%	inhibition at 50 µM (SARS-CoV-2 nsp3-mac1 [2]; read-out: perc_inhibition_mean, batch_name=ASAP-0000104-001): 0.46%
O=S(=O)(NC[C@@H]1CCCCO1)c1cn2c(n1)CCCC2 [ASAP-0000105]	-5.386%	inhibition at 50 µM (SARS-CoV-2 nsp3-mac1 [2]; read-out: perc_inhibition_mean, batch_name=ASAP-0000105-001): -5.39%
Cc1cc(NCc2csc(C)n2)ncn1 [ASAP-0000106]	-4.644%	inhibition at 50 µM (SARS-CoV-2 nsp3-mac1 [2]; read-out: perc_inhibition_mean, batch_name=ASAP-0000106-001): -4.64%
COc1ccccc1CN(C[C@@H]1CCCO1)c1ncnc2[nH]ccc12 [ASAP-0000107]	4.74%	inhibition at 50 µM (SARS-CoV-2 nsp3-mac1 [2]; read-out: perc_inhibition_mean, batch_name=ASAP-0000107-001): 4.74%
Cc1cccc([C@@H]2CCCN2c2ncnc3[nH]ccc23)n1 [ASAP-0000108]	0.182%	inhibition at 50 µM (SARS-CoV-2 nsp3-mac1 [2]; read-out: perc_inhibition_mean, batch_name=ASAP-0000108-001): 0.182%
CC(=O)Nc1ccc(S(=O)(=O)NNc2ncnc3sccc23)cc1 [ASAP-0000109]	5.363%	inhibition at 50 µM (SARS-CoV-2 nsp3-mac1 [2]; read-out: perc_inhibition_mean, batch_name=ASAP-0000109-001): 5.36%
Cc1cccc(Cl)c1-n1sc(=O)n(CC2CC2)c1=O [ASAP-0000110]	51.933%	inhibition at 50 µM (SARS-CoV-2 nsp3-mac1 [2]; read-out: perc_inhibition_mean, batch_name=ASAP-0000110-001): 51.9%
COc1cc(OC)cc(C(=O)N(CCC(=O)N2CCNCC2)Cc2cccc(Cl)c2)c1 [ASAP-0000111]	-4.529%	inhibition at 50 µM (SARS-CoV-2 nsp3-mac1 [2]; read-out: perc_inhibition_mean, batch_name=ASAP-0000111-001): -4.53%
CN(c1ncnc2[nH]ccc12)[C@H]1CCN(S(C)(=O)=O)C1 [ASAP-0000112]	-0.371%	inhibition at 50 µM (SARS-CoV-2 nsp3-mac1 [2]; read-out: perc_inhibition_mean, batch_name=ASAP-0000112-001): -0.371%
Cc1nn(C)c(NCc2nc(CO)cs2)c1C#N [ASAP-0000113]	2.1%	inhibition at 50 µM (SARS-CoV-2 nsp3-mac1 [2]; read-out: perc_inhibition_mean, batch_name=ASAP-0000113-001): 2.1%
O=C(CCCc1cccnc1)Nc1cnc2[nH]ncc2c1 [ASAP-0000114]	-3.651%	inhibition at 50 µM (SARS-CoV-2 nsp3-mac1 [2]; read-out: perc_inhibition_mean, batch_name=ASAP-0000114-001): -3.65%
CNC(=O)c1ccnc(NC(=O)c2ccc(N3CCOCC3)cc2)c1 [ASAP-0000115]	-12.336%	inhibition at 50 µM (SARS-CoV-2 nsp3-mac1 [2]; read-out: perc_inhibition_mean, batch_name=ASAP-0000115-001): -12.3%
Cc1noc(CCCNC(=O)c2ncnc3[nH]ccc23)n1 [ASAP-0000116]	-5.133%	inhibition at 50 µM (SARS-CoV-2 nsp3-mac1 [2]; read-out: perc_inhibition_mean, batch_name=ASAP-0000116-001): -5.13%
COCc1cc(CNc2nc3[nH]cnc3c(=O)[nH]2)on1 [ASAP-0000117]	2.984%	inhibition at 50 µM (SARS-CoV-2 nsp3-mac1 [2]; read-out: perc_inhibition_mean, batch_name=ASAP-0000117-001): 2.98%
Cc1cc(NCc2cnc3c(c2)NC(=O)CO3)cnc1C [ASAP-0000118]	4.531%	inhibition at 50 µM (SARS-CoV-2 nsp3-mac1 [2]; read-out: perc_inhibition_mean, batch_name=ASAP-0000118-001): 4.53%
Cn1ncc2ncnc(NCc3ncccc3O)c21 [ASAP-0000119]	-2.547%	inhibition at 50 µM (SARS-CoV-2 nsp3-mac1 [2]; read-out: perc_inhibition_mean, batch_name=ASAP-0000119-001): -2.55%
O=C(OCc1ncccc1Cl)c1ncnc2[nH]ccc12 [ASAP-0000120]	5.063%	inhibition at 50 µM (SARS-CoV-2 nsp3-mac1 [2]; read-out: perc_inhibition_mean, batch_name=ASAP-0000120-001): 5.06%
CC(C)n1ncnc1CNc1cc2c(=O)nc[nH]c2cn1 [ASAP-0000121]	-1.486%	inhibition at 50 µM (SARS-CoV-2 nsp3-mac1 [2]; read-out: perc_inhibition_mean, batch_name=ASAP-0000121-001): -1.49%
Cc1cncc(NCc2csc(-c3ccccn3)n2)c1 [ASAP-0000122]	-5.024%	inhibition at 50 µM (SARS-CoV-2 nsp3-mac1 [2]; read-out: perc_inhibition_mean, batch_name=ASAP-0000122-001): -5.02%
c1ccc(-c2nc(CNc3cccnc3)cs2)nc1 [ASAP-0000123]	-9.865%	inhibition at 50 µM (SARS-CoV-2 nsp3-mac1 [2]; read-out: perc_inhibition_mean, batch_name=ASAP-0000123-001): -9.87%
Cc1cc(NCc2ncccc2O)ncn1 [ASAP-0000124]	-3.335%	inhibition at 50 µM (SARS-CoV-2 nsp3-mac1 [2]; read-out: perc_inhibition_mean, batch_name=ASAP-0000124-001): -3.33%
